From patent US7122335B1, “Compounds and methods to enhance rAAV transduction” (priority 1999, dated 2006) come the findings set out here.

Peptide text beside a SMILES is read from it. * marks the point of attachment. Cbz = O=C(OCc1ccccc1)*

In one data set the test system is mouse liver. The experiment in a line: rAAV (AV.Alkphos) gene transfer in mouse liver in vivo, portal vein. More on the design: species or system C57B6 mice. On the procedure:
FIG. 19. […] Recombinant AV.Alkphos (5×10^10 particles) was administered to mouse liver either as virus alone in PBS, virus in combination with 40 μM Z-LLL in PBS, or virus in combination with 200 μM LLnL in PBS. Virus was directly instilled into portal vein of the C57B6 mice. AAV-mediated alkaline phosphatase transgene expression was evaluated by histology staining at 2 and 4 weeks post-infection in frozen tissue sections. The average percentage of the alkphos positive cells in all 6 liver lobes of each individual animal was quantified by NIH image analysis software. The data represents the mean (+/−SEM) of 3 independent mice for each time point in each group.
Recombinant AV.Alkphos (5×10^10 particles) was also administered to mouse liver either as virus alone in PBS, virus in combination with 40 μM Z-LLL in PBS, or virus in combination with 20 μM LLnL in PBS. Virus was directly instilled into portal vein of the C57B6 mice. AAV-mediated alkaline phosphatase transgene expression was evaluated by histology staining at 2 and 4 weeks post infection in frozen tissue sections ([…]).

Data set [1] has as its system polarized human bronchial epithelial cells. The class given is cell-based. On the procedure:
FIGS. 7A and 7B. Proteasome inhibitors differentially augment rAAV transduction from the apical or basolateral surfaces of airway epithelia. The efficiency and time course of rAAV transduction were evaluated in polarized airway epithelial cultures following infection with rAV.GFPori3 (MOI=10,000 particles/cell) in the presence or absence of 40 μM LLnL. Transgene expression was monitored by indirect fluorescence microscopy at the indicted time points by quantifying the mean number of GFP positive cells per 10× field (mean +/−SEM of 3 independent samples for each time point). The effect of LLnL treatment was compared between matched sets of tissue samples at each time point following infection from the apical (FIG. 7A) or basolateral (FIG. 7B) surfaces. The photomicrographs on the right side of each figure illustrate representative 20× fields for the 3 and 22 day post-infection time points.
FIG. 9. Effects of different agents on AAV transduction from the basal surface of polarized bronchial epithelia. Fully differentiated human bronchial airway epithelia were treated with the indicated agents at the time of AAV infection (MOI=10,000 particles/cell) from the basolateral surface. […] Since most of the tested agents (except for hydroxyurea) were dissolved in DMSO, a vehicle control of 1% (vol/vol) DMSO was also performed to exclude the possibility of a non-specific effect. GFP expression was monitored at 48 hours post-infection by counting the number of GFP positive cells per 10 random 10× fields in the culture dishes. The data represent the mean +/−SEM of three independent infections for each tested chemical.
FIG. 10. The proteasome inhibitor LLnL preferentially induces AAV transduction in ciliated cells. The cell types transduced by AAV were examined by alkaline phosphatase staining 3 days following basolateral infection of polarized epithelial cultures with AV.Alkphos infection (MOI=10,000 particles/cell) in the presence of or absence of 40 μM LLnL. […] 8 μm paraffin sections were used to histologically quantify the types of cells transduced. Three classifications were used, ciliated cells (with alkphos expression localized to the apical membrane and cilia), basal cells residing in the lower half of the epithelium with no contact with the lumen, and non-ciliated, columnar cells. Panel C (without LLnL) and D (with LLnL) show representative neutral red counter-stained cross-sections for each condition. The numbers of alkphos stained cells/2000 epithelial cells for the various cell types transduced by AAV are presented in panel E (mean +/−SEM from three independent Millicell insert samples).
FIGS. 11A and 11B. Optimization of LLnL-enhanced transduction in polarized bronchial epithelia. Differentiated transwell cultures were infected with AV.GFP3ori (10,000 particles/cell) from either the basolateral (FIG. 11A) or the apical (FIG. 11B) surface with the indicated treatments involving LLnL and/or EGTA. All infections were carried out for 24 hours and GFP transgene expression was monitored by indirect fluorescent microscopy at the indicated times. Data represent the mean (+/−SEM, N=6) for each experimental condition. Experiments were performed in triplicate on transwells derived from samples obtained from two different patients. […]

For the molecule `CC(C)C[C@@H](C=O)NC(=O)[C@H](CC(C)C)NC(=O)[C@H](CC(C)C)NC(=O)OCc1ccccc1` [Z-LLL, N-carbobenzoxyl-L-leucinyl-L-leucinyl-L-leucinal] (Cbz-Leu-Leu-Leu-aldehyde), in the data set with mouse liver (40 μM Z-LLL co-administered, 2 and 4 weeks), the “AAV-mediated gene transfer in mouse liver, in words” value is listed as “enhances AAV-mediated gene transfer”. Moreover, in the data set with mouse liver (1 month post-infection), the “increase in rAAV transduction in the liver” value was found to be 7 fold.

For the molecule “N-acetyl-L-leucinyl-L-leucinal-L-norleucinal [LLnL]”, in data set [1] (LLnL and rAAV co-administered to the mucosal surface), the “time of peak augmentation in AAV transduction” value was 22 days post-infection. In addition, in data set [1] (apical infection with LLnL, by 30 days), the “maximal level of transgene expression relative to basal infection” value was “one eighth”. Moreover, the “enhancement in rAAV transduction from the basolateral surface” value in data set [1] (basolateral (serosal) infection MOI 10,000, agent at time of infection, GFP at 48 hours/2 days, camptothecin 0.1 μM, etoposide 10 μM, hydroxyurea 40 mM, genistein 50 μM, LLnL 40 μM) is recorded as “greater than 200 fold”. For the same molecule, the “effect of repeated LLnL administration on transgene expression” value in data set [1] (basolateral infection, LLnL once every three days) is “increased length of peak transgene expression”. The “toxicity to cultured airway cells” value in data set [1] (continual exposure to 40 μM LLnL in basal medium after basolateral infection) was “toxic to cells and ablated transgene expression by 10 days”. Further, the “time of transient peak in gene expression” value in data set [1] (rAAV infection from the serosal surface in the presence of LLnL) amounted to 72 hours post-infection. For the same molecule, the AV.Alkphos transduction entry in data set [1] (serosal application of AV.Alkphos, 40 μM LLnL, 3 days) is reported as “dramatic increase in AV.Alkphos transduction”.
